Laboratory results: patent publication US20220110933A1, “METHODS OF TREATING DISEASE WITH MAGL INHIBITORS” (H. Lundbeck A/S, priority 2019, published 2022)

Assays:
[1] = system: L-DOPA induced dyskinesia in MPTP-lesioned cynomolgus macaques; test: MPTP-lesioned macaque model of L-DOPA induced dyskinesia (LID); assay type: in vivo, cynomolgus macaque; details: for reduction in median peak-dose dyskinesia after L-DOPA administration: single dose 2 h before L-DOPA, 0-2 h post L-DOPA
Description: The study utilized 8 female MPTP-lesioned cynomolgus macaques (10-15 years in age) that have received chronic repeat-treatment with L-DOPA and manifest stable and reproducible dyskinesia, of choreic and dystonic nature, in response to subsequent L-DOPA treatments.
A MGLL inhibitor, Compound 21, (3, 10 and 30 mg/kg), reference drug amantadine (10 mg/kg) and vehicle were administered by oral gavage as a single dose 2 h before a high-dose of L-DOPA (administered as Madopar™). The L-DOPA dose individualized for each animal is one that induced robust and reproducible anti-parkinsonian effects lasting ˜3-4 h but compromised by disabling dyskinesia. The animals were video-recorded for a 6 h period following L-DOPA administration and the effects of each treatment on dyskinesia, parkinsonian disability, duration and quality of anti-parkinsonian benefit (on-time) were scored blinded by a neurologist. Dyskinesia was scored using the non-human primate dyskinesia rating scale (NHPDysRS) and disability was scored using the monkey parkinsonian disability rating scale (mPDRS).
The study design was an ascending dose crossover with all animals receiving each treatment in the order of vehicle, 10 mg/kg amantadine, 3 mg/kg Compound 21, 10 mg/kg Compound 21, and 30 mg/kg Compound 21.

[2] = Plasma exposure and half-life in MPTP-lesioned macaques; assay type: in vivo, cynomolgus macaque; details: cynomolgus monkey

Row | SMILES | reduction in median peak-dose dyskinesia after L-DOPA administration ([1]; 10 mg/kg p.o.) | parkinsonian disability ([1]; 10 mg/kg p.o., 0-2 h post L-DOPA administration totals, P<0.05) | concentration at 2 h ([2]; plasma, oral, 10 mg/kg p.o., 2 h post-dose) | concentration at 8 h ([2]; plasma, oral, 10 mg/kg p.o., 8 h post-dose) | dyskinesia in the 1-2 h post L-DOPA interval ([1]; 10 mg/kg p.o.) | reduction in median peak-dose dyskinesia after L-DOPA administration ([1]; 30 mg/kg p.o.) | statistical significance of reduction in 0-2 hour total dyskinesia scores ([1]; 3, 10 and 30 mg/kg p.o.) | median peak dose dyskinesia induced by L-DOPA administration ([1]; 3, 10 and 30 mg/kg p.o., 0-2 h post L-DOPA totals) | anti-dyskinetic effects (overall) ([1]; MPTP-lesioned macaque model of L-DOPA induced dyskinesia) | benefit on dystonia and chorea ([1]; data not shown) | therapeutic effects on median dyskinesia ratings compared with amantadine ([1]; versus amantadine 10 mg/kg) | half-life ([2]; in vivo)
1 | NC12CC3CC(CC(C3)C1)C2 [Amantadine, amantadine, reference compound] | 29% | mild and statistically significant worsening | 1300 ng/mL | 1500 ng/mL |  |  |  |  |  |  |  | 
2 | O=C(OC(C(F)(F)F)C(F)(F)F)N1CCN(Cc2ccc(Cl)cc2N2CC3CCC(C2)O3)CC1 [Compound 21, 1,1,1,3,3,3-Hexafluoropropan-2-yl 4-(2-(8-oxa-3-azabicyclo[3.2.1]octan-3-yl)-4-chlorobenzyl)piperazine-1-carboxylate] | 45% |  |  |  | significant reduction | 35% | did not reach statistical significance | dose-dependently reduced | robust anti-dyskinetic effects | evidence of benefit on both dystonia and chorea | of greater magnitude | 16 to 34 h
